ChEMBL document CHEMBL5154649, “Design, synthesis, and characterization of novel aminoalcohol quinolines with strong in vitro antimalarial activity” (Eur J Med Chem, 2022)

Legend:
Plasmodium falciparum [1] = test: Antiplasmodial activity against CQ-susceptible Plasmodium falciparum 3D7 assessed as inhibition of parasite growth measured after 48 hrs by SYBR Green 1 dye based fluorescence assay; format: functional, organism-based; settings: 3D7, 48 h
Plasmodium falciparum [2] = test: Antiplasmodial activity against CQ-resistant Plasmodium falciparum W2 assessed as inhibition of parasite growth measured after 48 hrs by SYBR Green 1 dye based fluorescence assay; format: functional, organism-based; settings: W2, 48 h
Plasmodium falciparum [3] = test: Selectivity index, ratio of IC50 for antiplasmodial activity against CQ-susceptible Plasmodium falciparum 3D7 to IC50 for antiplasmodial activity against CQ-resistant Plasmodium falciparum W2 by SYBR Green 1 dye based fluorescence assay; format: functional
Plasmodium falciparum [4] = test: Antiplasmodial activity against CQ-susceptible Plasmodium falciparum 3D7 infected in human erythrocytes assessed as inhibition of parasite growth measured after 72 hrs by HRP2-ELISA; format: functional, organism-based; settings: 3D7, Erythrocyte
Plasmodium falciparum [5] = test: Antiplasmodial activity CQ-resistant Plasmodium falciparum W2 infected in human erythrocytes assessed as inhibition of parasite growth measured after 72 hrs by HRP2-ELISA; format: functional, organism-based; settings: W2, Erythrocyte
Plasmodium falciparum [6] = test: Selectivity index, ratio of IC50 for antiplasmodial activity against CQ-susceptible Plasmodium falciparum 3D7 to IC50 for antiplasmodial activity CQ-resistant Plasmodium falciparum W2 by HRP2-ELISA; format: functional
[7] = Cytotoxicity against Chinese hamster CHO cells assessed as reduction in cell viability incubated for 24 hrs by MTT assay; format: toxicity, cell-based, Cricetulus griseus
[8] = Cytotoxicity against human THP-1 cells assessed as reduction in cell viability incubated for 72 hrs by MTT assay; format: toxicity, cell-based

In the case of `O[C@@H](CNCCCCCCCCCCCCNC[C@H](O)c1cc(C(F)(F)F)nc2c(C(F)(F)F)cccc12)c1cc(C(F)(F)F)nc2c(C(F)(F)F)cccc12`, the IC50 (Plasmodium falciparum [1]) is reported as > 1000 nM and the IC50 (Plasmodium falciparum [2]) is reported as > 1000 nM.

For `OCCNC[C@@H](O)c1cc(C(F)(F)F)nc2c(C(F)(F)F)cccc12`, the IC50 (Plasmodium falciparum [1]) was > 1000 nM.

Work on `C[C@@H](CO)NC[C@H](O)c1cc(C(F)(F)F)nc2c(C(F)(F)F)cccc12` (single isomer, unassigned) yielded an IC50 (Plasmodium falciparum [1]) of 138 nM, an IC50 (Plasmodium falciparum [2]) of 51.7 nM and a Ratio IC50 (Plasmodium falciparum [3]) of 2.7.

`C[C@H](CO)NC[C@@H](O)c1cc(C(F)(F)F)nc2c(C(F)(F)F)cccc12` (single isomer, unassigned) showed an IC50 (Plasmodium falciparum [1]) of 68.5 nM, an IC50 (Plasmodium falciparum [2]) of 10 nM and a Ratio IC50 (Plasmodium falciparum [3]) of 6.85.

With `NCCCCCCCCCCCCNC[C@@H](O)c1cc(C(F)(F)F)nc2c(C(F)(F)F)cccc12` the IC50 (Plasmodium falciparum [1]) was 23.9 nM, the IC50 (Plasmodium falciparum [2]) was 43.8 nM and the Ratio IC50 (Plasmodium falciparum [3]) was 0.55.

In the case of `CC(C)(CO)NC[C@@H](O)c1cc(C(F)(F)F)nc2c(C(F)(F)F)cccc12`, the IC50 (Plasmodium falciparum [1]) is reported as 254 nM, the IC50 (Plasmodium falciparum [2]) is reported as 137 nM and the Ratio IC50 (Plasmodium falciparum [3]) is reported as 1.9.

Work on `O[C@H](CNCCN1CCN(C[C@@H](O)c2cc(C(F)(F)F)nc3c(C(F)(F)F)cccc23)CC1)c1cc(C(F)(F)F)nc2c(C(F)(F)F)cccc12` yielded an IC50 (Plasmodium falciparum [1]) of 361 nM, an IC50 (Plasmodium falciparum [2]) of 61.8 nM and a Ratio IC50 (Plasmodium falciparum [3]) of 5.8.

Compound `C[C@@H](CO)NC[C@@H](O)c1cc(C(F)(F)F)nc2c(C(F)(F)F)cccc12` has an IC50 (Plasmodium falciparum [1]) of 166 nM.

In the case of `O[C@@H](CN1CCNCC1)c1cc(C(F)(F)F)nc2c(C(F)(F)F)cccc12`, the IC50 (Plasmodium falciparum [1]) is reported as > 1000 nM.

Work on `OC[C@@H](NC[C@@H](O)c1cc(C(F)(F)F)nc2c(C(F)(F)F)cccc12)c1ccccc1` yielded an IC50 (Plasmodium falciparum [1]) of 94.4 nM, an IC50 (Plasmodium falciparum [2]) of 9.8 nM and a Ratio IC50 (Plasmodium falciparum [3]) of 9.6.

With `O[C@H](CN1CCN(C(c2ccccc2)c2ccccc2)CC1)c1cc(C(F)(F)F)nc2c(C(F)(F)F)cccc12` the IC50 (Plasmodium falciparum [1]) was 39 nM, the IC50 (Plasmodium falciparum [2]) was 36.7 nM and the Ratio IC50 (Plasmodium falciparum [3]) was 1.1.

For `O[C@@H](CNCCCN1CCN(CCCNC[C@H](O)c2cc(C(F)(F)F)nc3c(C(F)(F)F)cccc23)CC1)c1cc(C(F)(F)F)nc2c(C(F)(F)F)cccc12`, the IC50 (Plasmodium falciparum [1]) was > 1000 nM, the IC50 (Plasmodium falciparum [2]) was 321 nM and the Ratio IC50 (Plasmodium falciparum [3]) was > 3.1.

Compound `C[C@H]1[C@@H](O)O[C@@H]2O[C@@]3(C)CC[C@H]4[C@H](C)CC[C@@H]1[C@@]24OO3` [ARTENIMOL] has an IC50 (Plasmodium falciparum [4]) of 2.8 nM, an IC50 (Plasmodium falciparum [5]) of 3 nM and a Ratio IC50 (Plasmodium falciparum [6]) of 0.9.

In the case of `O[C@H](CN1CCNCC1)c1cc(C(F)(F)F)nc2c(C(F)(F)F)cccc12`, the IC50 (Plasmodium falciparum [1]) is reported as > 1000 nM.

With `OCCCC(CCCO)(CCCO)NC[C@H](O)c1cc(C(F)(F)F)nc2c(C(F)(F)F)cccc12` the IC50 (Plasmodium falciparum [1]) was > 1000 nM.

In the case of `OC[C@@H](NC[C@H](O)c1cc(C(F)(F)F)nc2c(C(F)(F)F)cccc12)c1ccccc1`, the IC50 (Plasmodium falciparum [1]) is reported as 104 nM, the IC50 (Plasmodium falciparum [2]) is reported as 15.9 nM and the Ratio IC50 (Plasmodium falciparum [3]) is reported as 6.5.

In the case of `CC(C)(CO)NC[C@H](O)c1cc(C(F)(F)F)nc2c(C(F)(F)F)cccc12`, the IC50 (Plasmodium falciparum [1]) is reported as 99.3 nM, the IC50 (Plasmodium falciparum [2]) is reported as 31.5 nM and the Ratio IC50 (Plasmodium falciparum [3]) is reported as 3.15.

With `OCCN1CCN(C[C@H](O)c2cc(C(F)(F)F)nc3c(C(F)(F)F)cccc23)CC1` the IC50 (Plasmodium falciparum [1]) was > 1000 nM.

`NCCCCCCCCCCCCNC[C@H](O)c1cc(C(F)(F)F)nc2c(C(F)(F)F)cccc12` showed an IC50 (Plasmodium falciparum [1]) of 176 nM, an IC50 (Plasmodium falciparum [2]) of 379 nM and a Ratio IC50 (Plasmodium falciparum [3]) of 0.5.

Work on `COc1cccc2c1C(=O)c1c(O)c3c(c(O)c1C2=O)C[C@@](O)(C(=O)CO)C[C@@H]3O[C@H]1C[C@H](N)[C@H](O)[C@H](C)O1` [DOXORUBICIN] yielded an IC50 at 24 h [7] of 3600 nM and an IC50 at 72 h [8] of 20 nM.

With `O[C@H](CN1CCN(Cc2cccc3ccccc23)CC1)c1cc(C(F)(F)F)nc2c(C(F)(F)F)cccc12` the IC50 (Plasmodium falciparum [1]) was > 1000 nM.

`NC[C@@H](O)c1cc(C(F)(F)F)nc2c(C(F)(F)F)cccc12` gave an IC50 (Plasmodium falciparum [2]) of 1460 nM.

`O[C@@H](CNCCN1CCN(C[C@H](O)c2cc(C(F)(F)F)nc3c(C(F)(F)F)cccc23)CC1)c1cc(C(F)(F)F)nc2c(C(F)(F)F)cccc12` gave an IC50 (Plasmodium falciparum [1]) of 453 nM, an IC50 (Plasmodium falciparum [2]) of 182 nM and a Ratio IC50 (Plasmodium falciparum [3]) of 2.5.

In the case of `NCCNC[C@H](O)c1cc(C(F)(F)F)nc2c(C(F)(F)F)cccc12`, the IC50 (Plasmodium falciparum [1]) is reported as > 1000 nM and the IC50 (Plasmodium falciparum [2]) is reported as > 1000 nM.

`C[C@H](CO)NC[C@H](O)c1cc(C(F)(F)F)nc2c(C(F)(F)F)cccc12` showed an IC50 (Plasmodium falciparum [1]) of 48.2 nM, an IC50 (Plasmodium falciparum [2]) of 10.1 nM and a Ratio IC50 (Plasmodium falciparum [3]) of 4.8.

With `OCCCC(CCCO)(CCCO)NC[C@@H](O)c1cc(C(F)(F)F)nc2c(C(F)(F)F)cccc12` the IC50 (Plasmodium falciparum [1]) was > 1000 nM.

Work on `O[C@H](CNCCCCCCCCCCCCNC[C@@H](O)c1cc(C(F)(F)F)nc2c(C(F)(F)F)cccc12)c1cc(C(F)(F)F)nc2c(C(F)(F)F)cccc12` yielded an IC50 (Plasmodium falciparum [1]) of 249 nM, an IC50 (Plasmodium falciparum [2]) of 837 nM and a Ratio IC50 (Plasmodium falciparum [3]) of 0.3.

With `OC[C@H](NC[C@@H](O)c1cc(C(F)(F)F)nc2c(C(F)(F)F)cccc12)c1ccccc1` the IC50 (Plasmodium falciparum [1]) was 103 nM, the IC50 (Plasmodium falciparum [2]) was 10.1 nM and the Ratio IC50 (Plasmodium falciparum [3]) was 10.3.

Compound `C=C[C@H]1CN2CC[C@H]1C[C@H]2[C@H](O)c1ccnc2ccc(OC)cc12` [QUININE] has an IC50 (Plasmodium falciparum [4]) of 74.2 nM, an IC50 (Plasmodium falciparum [5]) of 474 nM and a Ratio IC50 (Plasmodium falciparum [6]) of 0.2.

Compound `O[C@@H](CN1CCN(C(c2ccccc2)c2ccccc2)CC1)c1cc(C(F)(F)F)nc2c(C(F)(F)F)cccc12` has an IC50 (Plasmodium falciparum [1]) of 53.6 nM, an IC50 (Plasmodium falciparum [2]) of 29.3 nM and a Ratio IC50 (Plasmodium falciparum [3]) of 1.8.

Work on `COC[C@H](C)NC[C@@H](O)c1cc(C(F)(F)F)nc2c(C(F)(F)F)cccc12` yielded an IC50 (Plasmodium falciparum [1]) of 11.7 nM, an IC50 (Plasmodium falciparum [2]) of 57.2 nM and a Ratio IC50 (Plasmodium falciparum [3]) of 0.2.

Compound `O[C@H](CN1CCN(CCN2CCN(C[C@@H](O)c3cc(C(F)(F)F)nc4c(C(F)(F)F)cccc34)CC2)CC1)c1cc(C(F)(F)F)nc2c(C(F)(F)F)cccc12` has an IC50 (Plasmodium falciparum [1]) of 726 nM.

In the case of `O[C@H](CN1CCN(C[C@@H](O)c2cc(C(F)(F)F)nc3c(C(F)(F)F)cccc23)CC1)c1cc(C(F)(F)F)nc2c(C(F)(F)F)cccc12`, the IC50 (Plasmodium falciparum [1]) is reported as 953 nM, the IC50 (Plasmodium falciparum [2]) is reported as 707 nM and the Ratio IC50 (Plasmodium falciparum [3]) is reported as 1.35.

For `O[C@@H](CN1CCN(C[C@H](O)c2cc(C(F)(F)F)nc3c(C(F)(F)F)cccc23)CC1)c1cc(C(F)(F)F)nc2c(C(F)(F)F)cccc12`, the IC50 (Plasmodium falciparum [1]) was > 1000 nM and the IC50 (Plasmodium falciparum [2]) was > 1000 nM.

`COC[C@H](C)NC[C@H](O)c1cc(C(F)(F)F)nc2c(C(F)(F)F)cccc12` showed an IC50 (Plasmodium falciparum [1]) of 14.4 nM, an IC50 (Plasmodium falciparum [2]) of 5.1 nM and a Ratio IC50 (Plasmodium falciparum [3]) of 2.8.

With `OCCNC[C@H](O)c1cc(C(F)(F)F)nc2c(C(F)(F)F)cccc12` the IC50 (Plasmodium falciparum [1]) was > 1000 nM.

`CCNCc1cc(Nc2ccnc3cc(Cl)ccc23)ccc1O` [DESETHYL AMODIAQUINE] gave an IC50 (Plasmodium falciparum [4]) of 24.7 nM, an IC50 (Plasmodium falciparum [5]) of 100 nM and a Ratio IC50 (Plasmodium falciparum [6]) of 0.25.

For `O[C@@H](CN1CCN(Cc2cccc3ccccc23)CC1)c1cc(C(F)(F)F)nc2c(C(F)(F)F)cccc12`, the IC50 (Plasmodium falciparum [1]) was > 1000 nM.

For `OCCN1CCN(C[C@@H](O)c2cc(C(F)(F)F)nc3c(C(F)(F)F)cccc23)CC1`, the IC50 (Plasmodium falciparum [1]) was > 1000 nM.

For `O[C@@H](CN1CCN(CCN2CCN(C[C@H](O)c3cc(C(F)(F)F)nc4c(C(F)(F)F)cccc34)CC2)CC1)c1cc(C(F)(F)F)nc2c(C(F)(F)F)cccc12`, the IC50 (Plasmodium falciparum [1]) was 147 nM and the IC50 (Plasmodium falciparum [2]) was > 1000 nM.

With `OC[C@H](NC[C@H](O)c1cc(C(F)(F)F)nc2c(C(F)(F)F)cccc12)c1ccccc1` the IC50 (Plasmodium falciparum [1]) was 136 nM, the IC50 (Plasmodium falciparum [2]) was 29.9 nM and the Ratio IC50 (Plasmodium falciparum [3]) was 4.55.

With `O[C@H](CNCCCN1CCN(CCCNC[C@@H](O)c2cc(C(F)(F)F)nc3c(C(F)(F)F)cccc23)CC1)c1cc(C(F)(F)F)nc2c(C(F)(F)F)cccc12` the IC50 (Plasmodium falciparum [1]) was > 1000 nM, the IC50 (Plasmodium falciparum [2]) was 534 nM and the Ratio IC50 (Plasmodium falciparum [3]) was > 1.9.

With `NCCNC[C@@H](O)c1cc(C(F)(F)F)nc2c(C(F)(F)F)cccc12` the IC50 (Plasmodium falciparum [1]) was > 1000 nM and the IC50 (Plasmodium falciparum [2]) was > 1000 nM.
